Experimental data reported in US20250333486A1, “Anti-HSP90 alpha antibody and uses thereof” (NATIONAL HEALTH RESEARCH INSTITUTES, priority 2021, published 2025).

How the values were obtained:
[1] = tested on: ARPE-19 retinal pigmented epithelial cells; experiment: Retinal cell toxicity assay (MTS); format: cell-based, human; conditions: 72-h treatment, MTS; read-out: IC50 of cytotoxicity to ARPE-19 cells
Experimental: ARPE-19 cells were seeded onto 96-well plates at a density of 4000 cells per well, and then treated in triplicate with various concentrations of 17-AAG or anti-HSP90α antibody HH01 for 72 h. The 3-(4,5-dimethylthiazol-2-yl)-5-(3-carboxymethoxyphenyl)-2-(4-sulfophenyl)-2H-tetrazolium (MTS; Sigma-Aldrich) assay was employed and OD490 was measured to evaluate cell viability upon each treatment.

eHSP90α—TLR4 ligation = conditions: Chua et al., Cells 2020; cited from earlier work
PANC-1 cells [2] = experiment: Transwell invasion assay, rHSP90α-induced PANC-1 invasion; format: cell-based, human; conditions: 15 μg/ml rHSP90α plus 15 μg/ml peptide
Experimental: In a 37° C. and 5% CO2 humidified incubator, cancer cells were subjected to serum starvation in 0.5% FBS-containing medium for 16 h, and then added […] After another 24 h, the treated cells were harvested as aliquots (1×10^5 cells per aliquot) in 0.5% FBS-containing culture medium, and then each aliquot was seeded into a top chamber of Transwell inserts pre-coated with 5-fold diluted Matrigel (BD Biosciences). Cells were allowed 16 h to invade through the Matrigel toward the bottom chambers containing culture medium plus 10% FBS. The filters of the Transwell inserts were then fixed and stained with Giemsa. Invasive cells on the lower side of filters were photographed using the Axiovert S100/AxioCam HR microscope system (Carl Zeiss, Oberkochen, Germany) and further quantified by the Image-Pro Plus software (Media Cybernetics, Inc., Silver Spring, MD, USA).

PANC-1 cells [3] = experiment: Cell spheroid-forming assay, rHSP90α-induced PANC-1 spheroids; format: cell-based, human; conditions: 15 μg/ml rHSP90α plus 15 μg/ml peptide
Experimental: One thousand cancer cells were seeded onto each well of 24-well plates pre-coated with a 4-mm thick layer of 0.5% agarose. After incubation 24 h with serum-free medium at 37° C. plus a 5% CO2 humidified atmosphere, cells were added with PBS or 15 μg/ml of rHSP90α in the absence or presence of 10 μg/ml of control IgG or the tested anti-HSP90α antibody. The incubation was kept for 10-14 days with supplements of some fresh serum-free medium every 3 days. Finally, the cell spheroids characterized by tight, non-adherent, and >100 μm in diameter were photographed and counted under an Olympus IX 71 inverted microscope (Center Valley, PA, USA). The spheroid formation % was calculated by the formula: (number of cell spheroids/1000)×100%.

[4] = tested on: PANC-1 plus EndoMT cell grafts; experiment: Therapeutic efficacy in desmoplastic humanized mouse PDAC transplant model; format: in vivo; conditions: hHSC-transplanted ASID mice; antibody 5 mg/kg x3, gemcitabine 100 mg/kg x2, IV

Compound: C=CCNC1=C2C[C@@H](C)C[C@H](OC)[C@H](O)[C@@H](C)/C=C(\C)[C@H](OC(N)=O)[C@@H](OC)/C=C\C=C(/C)C(=O)NC(=CC1=O)C2=O [Clone 17-AAG, 17-AAG, reference compound]
- IC50 [1]: 0.0647 µM

Compound: CCCCCCCCOC(=O)c1cc(O)c(O)c(O)c1 [Octyl gallate]
- effect on EndoMT-derived CAFs and eHSP90α-induced macrophage M2-polarization and HSP90α expression (eHSP90α—TLR4 ligation): inhibitory effect

Compound: peptide with a sequence of the a.a. 227-272 region of HSP90α: synthesized epitopes-containing peptide with the sequence of a.a. 227-272 of HSP90α (DKEVSDDEAEEKEDKEEEKEKEEKESEDKPEIEDVGSDEEEEKKDG; UniProt P07900 227-272, looked up, fragment)
- rHSP90α-induced PANC-1 cell invasion (PANC-1 cells [2]): competitively suppressed
- rHSP90α-induced PANC-1 spheroid formation (PANC-1 cells [3]): competitively suppressed

Compound: Nc1ccn([C@@H]2O[C@H](CO)[C@@H](O)C2(F)F)c(=O)n1 [gemcitabine]
- tumor growth curves [4]: significantly repressed tumors after the second administration of gemcitabine
